Earlier results, collected in patent publication US20160375041A1, “INHIBITION OF ISOPRENOID BIOSYNTHETIC PATHWAYS TO TREAT AUTOIMMUNE DISORDERS” (priority 2013, published 2016).

Tested on: Vγ9Vδ2 TCR
Details: microbial derived HMBPP; fold more potent as stimulatory pyrophosphate

C/C(=C\COP(=O)(O)OP(=O)(O)O)CO [HMBPP, (E)-4-Hydroxy-3-methyl-but-2-enyl pyrophosphate]
potency relative to any other known, naturally-occurring pyrophosphate: over 10,000
